In patent publication US10543272B2, “Use of aminolevulinic acid and derivatives thereof” (Photocure ASA, priority 2007, dated 2020):
Counter-ions that a name gives are not always drawn.

Columns and labels:
Format in all cases: in vivo, human
[1] = system: patients with facial acne vulgaris; assay: Pain during light exposure and post-PDT pain, visual analog scale (Phase II study); settings: for Pain during light exposure, Mean: visual analog scale 0-100
Experimental: (§1) A clinical Phase II study involving 23 males and 20 females (age 18 years or more) with facial acne vulgaris (papulo-pustular acne and at least 15 inflammatory acne lesions on at least one side of the face) has been performed. Patients were randomized to receive either MAL cream on the face at a concentration of 160 mg/g (16% wt), 80 mg/g (8% wt) or 40 mg/g (4% wt). The cream was administered under occlusion. […] A light dose of 37 J/cm^2 using Photocure's Aktilite 128 LED light source was provided at a working distance between 5 and 8 cm. The average time to deliver said light dose was about 8 minutes. Safety was evaluated by medical questionnaire and adverse events, i.e., side effects, reporting. Mean pain during light exposure was evaluated by patients on a visual analog scale where 0=no pain and 100=worst possible pain.

[2] = system: patients with facial acne vulgaris; assay: Post-PDT erythema from patient journal (Phase II study)
Experimental: as §1, with “This information” for “Safety”, “derived from the journal kept” for “evaluated”, “patients. […] There is a significant difference among the 6 groups in the duration of post PDT erythema (p=0.03). […] In fact, all” for “medical questionnaire and adverse events, i.e., side effects, reporting. Mean pain during light exposure was evaluated by”, “in the standard PDT treatment group experienced post-PDT erythema.” for “on a visual analog scale where 0=no pain and 100=worst possible pain.”

[3] = system: patients with facial acne vulgaris; assay: Adverse events subsequent to light exposure (Phase II study)
Experimental: as §1, with “reporting. Additional data relating to the adverse events, i.e., side effects, observed subsequent to” for “reporting. Mean pain during”, “exposure during the study are shown in the table below. For” for “exposure was evaluated by”, “patients who received the standard PDT treatment, i.e., patients in the 3 h after MAL (160 mg/g) group, not only” for “patients on”, “a larger number of adverse events were observed than for the patients in any of the other groups, but the adverse events were also more severe in nature, i.e., higher numbers of moderate” for “a visual analog scale where 0=no pain”, “and severe adverse events (AEs) were observed.” for “and 100=worst possible pain.”

[4] = 160 mg/g 3 h and 80 mg/g 1.5 h groups together
[5] = 3 h, 160 mg/g (standard PDT), 7 patients

For `COC(=O)CCC(=O)CN` [MAL, methylaminolevulinate hydrochloride], the “Patients in whom light delivery had to be ended because of pain” value [1, 4] was 2 patients, the “Patients in whom light delivery had to be interrupted because of pain” value [1, 4] was 2 patients and the “Patients experiencing post-PDT pain” value ([1]; 0.5 h after MAL (80 mg/g)) was 1 out of 6. The “Pain during light exposure, Mean” value ([1]; MAL cream 40 mg/g, 1 h before red light 37 J/cm^2) was 2, the “Pain during light exposure, Mean” value ([1]; MAL cream 40 mg/g, 1.5 h before red light 37 J/cm^2) was 19 and the “Pain during light exposure, Mean” value ([1]; MAL cream 80 mg/g, 0.5 h before red light 37 J/cm^2) was 1. For the same compound, the “Pain during light exposure, Mean” value ([1]; MAL cream 80 mg/g, 1 h before red light 37 J/cm^2) was 9, the “Pain during light exposure, Mean” value ([1]; MAL cream 80 mg/g, 1.5 h before red light 37 J/cm^2) was 32 and the “Pain during light exposure, Mean” value ([1]; MAL cream 160 mg/g, 3 h before red light 37 J/cm^2 (standard PDT)) was 64. For the same compound, the “Patients experiencing post-PDT pain” value ([1]; all other groups (40 mg/g 1 h and 1.5 h; 80 mg/g 1 h and 1.5 h)) was “zero”, the “Patients experiencing post-PDT pain” value ([1]; standard PDT group (160 mg/g, 3 h)) was 5 out of 7 and the “Mean duration of erythema (shortest)” value ([2]; 40 mg/g for 1 hour) was 0.5 days. The “Mean duration of erythema (longest)” value ([2]; 160 mg/g for 3 hours) was 14 days, the “Duration of post PDT erythema, Mean” value ([2]; MAL cream 40 mg/g, 1 h) was 4 days and the “n: number of patients experiencing post-PDT erythema” value (from here on “n: number”) ([2]; MAL cream 40 mg/g, 1 h, 8 patients in group) was 4. The “Duration of post PDT erythema, Mean” value ([2]; MAL cream 40 mg/g, 1.5 h) was 1.8 days, the “n: number” value ([2]; MAL cream 40 mg/g, 1.5 h, 8 patients in group) was 6 and the “n: number” value ([2]; MAL cream 80 mg/g, 0.5 h, 6 patients in group) was 0. The “Duration of post PDT erythema, Mean” value ([2]; MAL cream 80 mg/g, 1 h) was 2.1 days, the “n: number” value ([2]; MAL cream 80 mg/g, 1 h, 8 patients in group) was 5 and the “Duration of post PDT erythema, Mean” value ([2]; MAL cream 80 mg/g, 1.5 h) was 3.7 days. For the same compound, the “n: number” value ([2]; MAL cream 80 mg/g, 1.5 h, 6 patients in group) was 3, the “Duration of post PDT erythema, Mean” value ([2]; MAL cream 160 mg/g, 3 h (standard PDT)) was 11.9 days and the “n: number” value ([2]; MAL cream 160 mg/g, 3 h (standard PDT), 7 patients in group) was 7. For the same compound, the “Patients experiencing post-PDT erythema” value ([2]; standard PDT treatment group (160 mg/g, 3 h)) was “all patients”, the “Mild AEs Per Pat” value ([3]; 0.5 h, 80 mg/g) was 0.6 and the “Moderate AEs Per Pat” value ([3]; 0.5 h, 80 mg/g) was 0. The “Severe AEs Per Pat” value ([3]; 0.5 h, 80 mg/g) was 0, the “Total AEs Per Pat” value ([3]; 0.5 h, 80 mg/g) was 0.667 and the “Mild AEs” value ([3]; 0.5 h, 80 mg/g, 6 patients) was 4. The “Moderate AEs” value ([3]; 0.5 h, 80 mg/g, 6 patients) was 0, the “Severe AEs” value ([3]; 0.5 h, 80 mg/g, 6 patients) was 0 and the “Total AEs” value ([3]; 0.5 h, 80 mg/g, 6 patients) was 4. For the same compound, the “Mild AEs Per Pat” value ([3]; 1 h, 40 mg/g) was 1.125, the “Moderate AEs Per Pat” value ([3]; 1 h, 40 mg/g) was 0 and the “Severe AEs Per Pat” value ([3]; 1 h, 40 mg/g) was 0. For the same compound, the “Total AEs Per Pat” value ([3]; 1 h, 40 mg/g) was 1.125, the “Mild AEs” value ([3]; 1 h, 40 mg/g, 8 patients) was 9 and the “Moderate AEs” value ([3]; 1 h, 40 mg/g, 8 patients) was 0. For the same compound, the “Severe AEs” value ([3]; 1 h, 40 mg/g, 8 patients) was 0, the “Total AEs” value ([3]; 1 h, 40 mg/g, 8 patients) was 9 and the “Mild AEs Per Pat” value ([3]; 1 h, 80 mg/g) was 1.375. The “Moderate AEs Per Pat” value ([3]; 1 h, 80 mg/g) was 0, the “Severe AEs Per Pat” value ([3]; 1 h, 80 mg/g) was 0 and the “Total AEs Per Pat” value ([3]; 1 h, 80 mg/g) was 1.375. The “Mild AEs” value ([3]; 1 h, 80 mg/g, 8 patients) was 11, the “Moderate AEs” value ([3]; 1 h, 80 mg/g, 8 patients) was 0 and the “Severe AEs” value ([3]; 1 h, 80 mg/g, 8 patients) was 0. For the same compound, the “Total AEs” value ([3]; 1 h, 80 mg/g, 8 patients) was 11, the “Mild AEs Per Pat” value ([3]; 1.5 h, 40 mg/g) was 2 and the “Moderate AEs Per Pat” value ([3]; 1.5 h, 40 mg/g) was 0.125. The “Severe AEs Per Pat” value ([3]; 1.5 h, 40 mg/g) was 0, the “Total AEs Per Pat” value ([3]; 1.5 h, 40 mg/g) was 2.125 and the “Mild AEs” value ([3]; 1.5 h, 40 mg/g, 8 patients) was 16. For the same compound, the “Moderate AEs” value ([3]; 1.5 h, 40 mg/g, 8 patients) was 1, the “Severe AEs” value ([3]; 1.5 h, 40 mg/g, 8 patients) was 0 and the “Total AEs” value ([3]; 1.5 h, 40 mg/g, 8 patients) was 17. For the same compound, the “Mild AEs Per Pat” value ([3]; 1.5 h, 80 mg/g) was 1.5, the “Moderate AEs Per Pat” value ([3]; 1.5 h, 80 mg/g) was 0.167 and the “Severe AEs Per Pat” value ([3]; 1.5 h, 80 mg/g) was 0.167. The “Total AEs Per Pat” value ([3]; 1.5 h, 80 mg/g) was 1.833, the “Mild AEs” value ([3]; 1.5 h, 80 mg/g, 6 patients) was 9 and the “Moderate AEs” value ([3]; 1.5 h, 80 mg/g, 6 patients) was 1. The “Severe AEs” value ([3]; 1.5 h, 80 mg/g, 6 patients) was 1, the “Total AEs” value ([3]; 1.5 h, 80 mg/g, 6 patients) was 11 and the “Mild AEs Per Pat” value ([3]; 3 h, 160 mg/g (standard PDT)) was 2.14. The “Moderate AEs Per Pat” value ([3]; 3 h, 160 mg/g (standard PDT)) was 1, the “Severe AEs Per Pat” value ([3]; 3 h, 160 mg/g (standard PDT)) was 0.429 and the “Total AEs Per Pat” value ([3]; 3 h, 160 mg/g (standard PDT)) was 3.571. For the same compound, the “Mild AEs” value [3, 5] was 15, the “Moderate AEs” value [3, 5] was 7 and the “Severe AEs” value [3, 5] was 3. For the same compound, the “Total AEs” value [3, 5] was 25 and the “Cracked skin with bleeding” value ([3]; standard PDT treatment, 3 h after MAL (160 mg/g), did not occur with any other treatment modality) was “one patient”.
